The values below come from PMC7160333, “Physiological Role of Glutamate Dehydrogenase in Cancer Cells” (Frontiers in Oncology, 2020).

The target in one assay is HepM GDH1 (Rattus norvegicus, UniProt P10860). Description: GDH reverse (aminating) reaction activity in hepatoma mitochondria (HepM). Type of assay: biochemical. As to conditions: for Vmax at given ADP concentration: HepM GDH, pH 7.50, 37°C, 280 μg protein, MWC fit, representative experiment; for EC50: Hill equation; for Ki: saturating ADP, read-out: Ki GTP. As for the experimental part:
(§1) Tightly coupled mitochondria were isolated from fed-rat liver (RLM) and AS-30D cells (HepM) as described elsewhere ([89], [90]). […] The resulting mitochondrial fractions were resuspended at 30 to 80 mg protein/mL in SHE buffer with 1 mM PMSF, 1 mM EDTA, 5 mM DTT, and 10% glycerol, and stored at −70°C until use for determination of enzyme activity and Western blotting.

For the next assay, the target named is RLM GDH1 (Rattus norvegicus, UniProt P10860). Description: GDH reverse (aminating) reaction activity in rat liver mitochondria (RLM). Type of assay: biochemical. The conditions noted are these: for Vmax at given ADP concentration: RLM GDH, pH 7.50, 37°C, 90 μg protein, MWC fit, representative experiment; for EC50: Hill equation; for Ki: saturating ADP, read-out: Ki GTP. As to the method: as §1
Chain of RLM GDH1 (P10860 54-558): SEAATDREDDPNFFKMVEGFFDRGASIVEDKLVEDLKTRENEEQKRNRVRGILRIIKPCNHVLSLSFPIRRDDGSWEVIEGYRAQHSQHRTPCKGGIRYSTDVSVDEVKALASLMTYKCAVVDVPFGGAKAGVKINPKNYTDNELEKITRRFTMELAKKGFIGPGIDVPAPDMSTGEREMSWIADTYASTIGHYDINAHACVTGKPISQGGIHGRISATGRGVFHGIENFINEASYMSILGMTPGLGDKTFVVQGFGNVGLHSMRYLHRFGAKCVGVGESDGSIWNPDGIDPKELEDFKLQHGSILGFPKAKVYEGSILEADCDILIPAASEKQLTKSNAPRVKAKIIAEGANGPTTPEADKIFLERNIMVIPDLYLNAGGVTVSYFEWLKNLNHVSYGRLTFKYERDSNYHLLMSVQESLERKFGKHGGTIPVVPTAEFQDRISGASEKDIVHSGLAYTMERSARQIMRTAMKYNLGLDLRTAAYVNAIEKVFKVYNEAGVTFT

Assay [1] concerns recombinant human GDH isoforms (GDH1 and GDH2), bovine liver GDH, Ox brain GDH, dogfish liver GDH, rat brain GDH, and bovine brain GDH isoforms. Further details: method as in PMID 4381532, PMID 7588764, PMID 17924438, PMID 23420347, PMID 7190024. The conditions noted are these: pH range of 7.4–8.7, cited from earlier work.
A further assay concerns the target GDH in HepM and RLM (Rattus norvegicus, UniProt P10860). Nature of the assay: GDH reverse reaction kinetics, summary statements for HepM and RLM. The format is biochemical. The conditions noted are these: summary of Table 2.
Another assay concerns the target GDH1 (Rattus norvegicus, UniProt P10860). Nature of the assay: Effect of Mg2+ and spermidine on GDH1 activity. Type of assay: biochemical.
Assay [2] deals with mammalian liver and brain GDHs. Further details: method as in PMID 3701332, PMID 7588764, PMID 7190024, PMID 4052048, PMID 1366782. The conditions noted are these: cited from earlier work.
The test system of assay [3] is prostate cancer, renal cancer, and leukemia cell lines. More on the design: method as in PMID 1372534, PMID 12820434. As to conditions: cited from earlier work.
A further assay relates to tumors. Further details: method as in PMID 10071293. As to conditions: clinical trials; cited from earlier work.

SMILES strings stand for the structures. Like-named read-outs stand apart in the source and are kept apart here. A value given as a limit tells only on which side of the number the result lay.

Chain of HepM GDH1 (P10860 54-558): as above
Chain of GDH1 (P10860 54-558): as above
Chain of GDH in HepM and RLM (P10860 54-558): as above
Procedure for GDH in HepM and RLM: The decrease in the absorbance at 340 nm was followed for several minutes (~10 min) to allow for full development of the pronounced enzyme hysteretic behavior, although the initial signal decrease (1–3 min) was taken to calculate the GDH rates. The protein concentration ranges used for each mitochondrial type were well within the linearity range of enzyme activity. To calculate the kinetic parameters, the experimental data were fitted by non-linear regression analysis to the Hill or MWC equation, using the Microcal Origin 5.0 software (OriginLab, Northampton, MA, USA).

For `O=C(O)CCC(=O)C(=O)O` [2-OG, 2-oxoglutarate], the Km was 442 ± 160 µM at HepM GDH1 (HepM, pH 7.2, Michaelis–Menten, read-out: Km 2-OG); 733 ± 325 µM at HepM GDH1 (HepM, pH 7.5, Michaelis–Menten, read-out: Km 2-OG); 371 ± 232 µM on RLM GDH1 (RLM, pH 7.2, Michaelis–Menten, read-out: Km 2-OG); 396 ± 75 µM at RLM GDH1 (RLM, pH 7.5, Michaelis–Menten, read-out: Km 2-OG); 470 to 4500 µM in assay [1] (read-out: Km 2OG).
For the compound `Nc1ncnc2c1ncn2[C@@H]1O[C@H](COP(=O)(O)OP(=O)(O)O)[C@@H](O)[C@H]1O` [ADP], the “Vmax at given ADP concentration” value on HepM GDH1 (0.13 mM ADP) is 0.037 ± 0.009 ΔAbs/min; at HepM GDH1 (0.5 mM ADP), 0.153 ± 0.008 ΔAbs/min; on HepM GDH1 (1.5 mM ADP), 0.193 ± 0.011 ΔAbs/min; at HepM GDH1 ([…] ADP) it was 0.099 ± 0.010 ΔAbs/min; on RLM GDH1 (0.25 mM ADP), 0.131 ± 0.113 ΔAbs/min; on RLM GDH1 (0.75 mM ADP), 0.295 ± 0.022 ΔAbs/min. In addition, the “Vmax at given ADP concentration” value at RLM GDH1 (2.1 mM ADP) is 0.367 ± 0.024 ΔAbs/min. In addition, the “nH (Hill coefficient) for ADP” value at HepM GDH1 (HepM, pH 7.2, Hill equation) was determined as 2.77 ± 0.7; at HepM GDH1 (HepM, pH 7.5, Hill equation), 2.6 ± 0.4; on RLM GDH1 (RLM, pH 7.2, Hill equation), 2.4 ± 0.3; on RLM GDH1 (RLM, pH 7.5, Hill equation), 2.34. For the same compound, the “Ka ADP (activation constant)” value was 0.42 ± 0.26 (3) mM at HepM GDH1 (HepM, pH 7.2, MWC equation); 0.44 ± 0.37 (3) mM at HepM GDH1 (HepM, pH 7.5, MWC equation); 0.51 ± 0.14 (5) mM on RLM GDH1 (RLM, pH 7.2, MWC equation); 0.11 ± 0.14 (4) mM at RLM GDH1 (RLM, pH 7.5, MWC equation). For the same compound, the EC50 was found to be 564 ± 167 µM on HepM GDH1 (HepM, pH 7.2, allosteric activator, read-out: K0.5 ADP); 281 ± 134 µM at HepM GDH1 (HepM, pH 7.5, allosteric activator, read-out: K0.5 ADP); 567 ± 125 µM at RLM GDH1 (RLM, pH 7.2, allosteric activator, read-out: K0.5 ADP); 285 µM at RLM GDH1 (RLM, pH 7.5, allosteric activator, read-out: K0.5 ADP). On GDH in HepM and RLM, the “Hill coefficient (nH) when varying ADP” value is 2.3–2.8.
Regarding `Nc1nc2c(ncn2[C@@H]2O[C@H](COP(=O)(O)OP(=O)(O)OP(=O)(O)O)[C@@H](O)[C@H]2O)c(=O)[nH]1` [GTP], the Ki came to 28 ± 27 µM at HepM GDH1 (HepM, pH 7.2, MWC equation); 64 ± 59 µM on HepM GDH1 (HepM, pH 7.5, MWC equation); 60 ± 10 µM at RLM GDH1 (RLM, pH 7.2, MWC equation); 31.7 ± 7 µM on RLM GDH1 (RLM, pH 7.5, MWC equation). Also, the IC50 is 114 ± 29 µM at HepM GDH1 (HepM, pH 7.2, reverse reaction); 139 ± 21 µM against RLM GDH1 (RLM, pH 7.2, reverse reaction); 244 µM against RLM GDH1 (RLM, pH 7.5, reverse reaction).
Turning to `CC(C)C[C@H](N)C(=O)O` [Leu, L-leucine], the “nH (Hill coefficient) for Leu” value is 2.8 at HepM GDH1 (HepM, pH 7.2, Hill equation) and 2.75 on RLM GDH1 (RLM, pH 7.2, Hill equation). For the same compound, the EC50 on HepM GDH1 (HepM, pH 7.2, activator, read-out: K0.5 Leu) came out at 2600 µM; on RLM GDH1 (RLM, pH 7.2, activator, read-out: K0.5 Leu), 3900 µM.
Take `[Cl-].[Cl-].[Mg+2]` [Mg^2+, MgCl2]: the “Effect on GDH1 activity” value on GDH1 (0- to 0.4-mM added MgCl2) is recorded as “not affected”. The results for the “Inhibition of GDH1 activity” value at GDH1 (1 mM Mg^2+) and on GDH1 (2 mM Mg^2+) were less than 10% and ~ 20%, respectively.
Turning to `NC(=O)C1=CN([C@@H]2O[C@H](COP(=O)(O)OP(=O)(O)OC[C@H]3O[C@@H](n4cnc5c(N)ncnc54)[C@H](O)[C@@H]3O)[C@@H](O)[C@H]2O)C=CC1` [NADH], in assay [2], the Km was 28 to 120 µM.
`NC(=O)C1=CN([C@@H]2O[C@H](COP(=O)(O)OP(=O)(O)OC[C@H]3O[C@@H](n4cnc5c(N)ncnc54)[C@H](OP(=O)(O)O)[C@@H]3O)[C@@H](O)[C@H]2O)C=CC1` [NADPH]: the Km at HepM GDH1 (read-out: Km NADPH, HepM, pH 7.2, Michaelis–Menten) is 46 ± 14 µM; on HepM GDH1 (read-out: Km NADPH, HepM, pH 7.5, Michaelis–Menten), 109 ± 4 µM; at RLM GDH1 (read-out: Km NADPH, RLM, pH 7.5, Michaelis–Menten), 133 ± 28 µM; in assay [1] (read-out: Km NADPH), 20 to 120 µM; in assay [2], 22 to 120 µM.
In the case of `NC(=O)c1ccc[n+]([C@@H]2O[C@H](COP(=O)([O-])OP(=O)(O)OC[C@H]3O[C@@H](n4cnc5c(N)ncnc54)[C@H](OP(=O)(O)O)[C@@H]3O)[C@@H](O)[C@H]2O)c1` [NADP^+], the Michaelis constant (Km) in assay [2] was 160 to 1220 µM.
Turning to `NC(=O)c1ccc[n+]([C@@H]2O[C@H](COP(=O)([O-])OP(=O)(O)OC[C@H]3O[C@@H](n4cnc5c(N)ncnc54)[C@H](O)[C@@H]3O)[C@@H](O)[C@H]2O)c1` [NAD^+], the Km in assay [2] is 170 to 830 µM.
Regarding `O=C(O)CCCc1ccccc1` [Phenylbutyrate, phenylbutyrate], the “Growth of cell lines” value in assay [3] is reported as “arrests growth”.
Regarding `NCCCCNCCCN` [Spermidine], at GDH1 (spermidine 0–5 mM, data not shown), the “Effect on GDH activity” value is given as “innocuous”. Further, the inhibition at 20000 µM at GDH1 (spermidine 20 mM, data not shown, read-out: Inhibition of GDH activity) turned out to be 20%.
For `O=C(O)Cc1ccccc1` [phenylacetate], the Antitumor activity entry in the assay with tumors is reported as “negligible antitumor activity”. For the same compound, the “Growth of cell lines” value in assay [3] was “arrests growth”.

A word on the Km: it is the substrate concentration at which the rate is half of its maximum. In general, Ki refers to the dissociation constant of the complex between target and ligand, obtained from inhibition or displacement. As usually defined, the IC50 is the point on the concentration scale where inhibition reaches its midpoint. Higher therefore signals a need for much substance. As usually defined, the inhibition is the change of the read-out against control, counted positive when it falls.
